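Step 1: Grow cells in 96-well plates. Step 2: Expose to compound for 48 hours at 5 concentrations. Step 3: Interpolate endpoints linearly; if unreached, use highest concentration. TGI marks complete inhibition of growth.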 Where a SMILES comes first, the peptide text is derived from it. [ ]: non-standard residue; d: D form. ξ: configuration not given here. ξ2Thi = NC(Cc1cccs1)C(=O)O; ξR = N=C(N)NCCCC(N)C(=O)O; ξI = CCC(C)C(N)C(=O)O; ξL = CC(C)CC(N)C(=O)O; ξK = NCCCCC(N)C(=O)O; ξT = CC(O)C(N)C(=O)O; ξA = CC(N)C(=O)O
What was measured:
Assay in all cases: NCI tumour cell line growth inhibition, 48 h
T-47D breast = system: T-47D breast
SF-268 CNS = system: SF-268 CNS
MOLT-4 leukemia = system: MOLT-4 leukemia
HT29 colon = system: HT29 colon
TK-10 renal = system: TK-10 renal
SR leukemia = system: SR leukemia
NCI-H460 lung = system: NCI-H460 lung
SK-OV-3 ovarian = system: SK-OV-3 ovarian
NCI-H23 lung = system: NCI-H23 lung
NCI/ADR-RES ovarian = system: NCI/ADR-RES ovarian
RPMI-8226 leukemia = system: RPMI-8226 leukemia
HCT-15 colon = system: HCT-15 colon
SNB-75 CNS = system: SNB-75 CNS
LOX IMVI melanoma = system: LOX IMVI melanoma
OVCAR-5 ovarian = system: OVCAR-5 ovarian
HCT-116 colon = system: HCT-116 colon
MALME-3M melanoma = system: MALME-3M melanoma
MCF7 breast = system: MCF7 breast
COLO 205 colon = system: COLO 205 colon
MDA-MB-435 = system: MDA-MB-435
SF-295 CNS = system: SF-295 CNS
BT-549 breast = system: BT-549 breast
ACHN renal = system: ACHN renal
CAKI-1 renal = system: CAKI-1 renal
EKVX NSCLC = system: EKVX NSCLC
786-0 renal = system: 786-0 renal
U251 CNS = system: U251 CNS
RXF 393 renal = system: RXF 393 renal
SNB-19 CNS = system: SNB-19 CNS
NCI-H226 lung = system: NCI-H226 lung
M14 melanoma = system: M14 melanoma
UACC-62 melanoma = system: UACC-62 melanoma
HCC-2998 colon = system: HCC-2998 colon
SW-620 colon = system: SW-620 colon
NCI-H522 lung = system: NCI-H522 lung
HL-60(TB) leukemia = system: HL-60(TB) leukemia
UO-31 renal = system: UO-31 renal
DU-145 prostate = system: DU-145 prostate
OVCAR-4 ovarian = system: OVCAR-4 ovarian
A549 NSCLC = system: A549 NSCLC
HOP-92 NSCLC = system: HOP-92 NSCLC
SF-539 CNS = system: SF-539 CNS
KM12 colon = system: KM12 colon
MDA-MB-231 breast = system: MDA-MB-231 breast
A498 renal = system: A498 renal
UACC-257 melanoma = system: UACC-257 melanoma
SK-MEL-2 melanoma = system: SK-MEL-2 melanoma
SN12C renal = system: SN12C renal
CCRF-CEM leukemia = system: CCRF-CEM leukemia
HOP-62 NSCLC = system: HOP-62 NSCLC
SK-MEL-5 melanoma = system: SK-MEL-5 melanoma
HS 578T breast = system: HS 578T breast
IGROV1 ovarian = system: IGROV1 ovarian
SK-MEL-28 melanoma = system: SK-MEL-28 melanoma
K-562 leukemia = system: K-562 leukemia
OVCAR-8 ovarian = system: OVCAR-8 ovarian
OVCAR-3 ovarian = system: OVCAR-3 ovarian
PC-3 prostate = system: PC-3 prostate

Nc1ccc(S(=O)(=O)Nc2nnc(S(N)(=O)=O)s2)cc1
TGI (T-47D breast): > 100 µM | TGI (SF-268 CNS): > 100 µM | TGI (MOLT-4 leukemia): > 100 µM | TGI (HT29 colon): > 100 µM | TGI (TK-10 renal): > 100 µM | TGI (SR leukemia): > 100 µM | TGI (NCI-H460 lung): > 100 µM | TGI (SK-OV-3 ovarian): > 100 µM | TGI (NCI-H23 lung): > 100 µM | TGI (NCI/ADR-RES ovarian): > 100 µM | TGI (RPMI-8226 leukemia): > 100 µM | TGI (HCT-15 colon): > 100 µM | TGI (SNB-75 CNS): > 100 µM | TGI (LOX IMVI melanoma): > 100 µM | TGI (OVCAR-5 ovarian): > 100 µM | TGI (HCT-116 colon): > 100 µM | TGI (MALME-3M melanoma): > 100 µM | TGI (MCF7 breast): > 100 µM | TGI (COLO 205 colon): > 100 µM | TGI (MDA-MB-435): > 100 µM | TGI (SF-295 CNS): > 100 µM | TGI (BT-549 breast): > 100 µM | TGI (ACHN renal): > 100 µM | TGI (CAKI-1 renal): > 100 µM | TGI (EKVX NSCLC): > 100 µM | TGI (786-0 renal): > 100 µM | TGI (U251 CNS): > 100 µM | TGI (RXF 393 renal): > 100 µM | TGI (SNB-19 CNS): > 100 µM | TGI (NCI-H226 lung): > 100 µM | TGI (M14 melanoma): > 100 µM | TGI (UACC-62 melanoma): > 100 µM | TGI (HCC-2998 colon): > 100 µM | TGI (SW-620 colon): > 100 µM | TGI (NCI-H522 lung): > 100 µM | TGI (HL-60(TB) leukemia): > 100 µM | TGI (UO-31 renal): > 100 µM | TGI (DU-145 prostate): > 100 µM | TGI (OVCAR-4 ovarian): > 100 µM | TGI (A549 NSCLC): > 100 µM | TGI (HOP-92 NSCLC): > 100 µM | TGI (SF-539 CNS): > 100 µM | TGI (KM12 colon): > 100 µM | TGI (MDA-MB-231 breast): > 100 µM | TGI (A498 renal): > 100 µM

CC(C)(C)c1cc(C(=O)Nc2cc(Br)c(Br)cc2S(N)(=O)=O)cc(C(C)(C)C)c1O
TGI (T-47D breast): 15.6 µM | TGI (SF-268 CNS): 29 µM | TGI (MOLT-4 leukemia): 18.8 µM | TGI (HT29 colon): 16.2 µM | TGI (TK-10 renal): 25.5 µM | TGI (UACC-257 melanoma): 33.1 µM | TGI (SK-MEL-2 melanoma): 22.7 µM | TGI (SK-OV-3 ovarian): 31.3 µM | TGI (NCI-H23 lung): 40 µM | TGI (SN12C renal): 21.2 µM | TGI (RPMI-8226 leukemia): > 100 µM | TGI (HCT-15 colon): 16.8 µM | TGI (SNB-75 CNS): 21.5 µM | TGI (LOX IMVI melanoma): 19.4 µM | TGI (CCRF-CEM leukemia): 26.6 µM | TGI (OVCAR-5 ovarian): 24.9 µM | TGI (HCT-116 colon): 20.5 µM | TGI (MALME-3M melanoma): 26.6 µM | TGI (HOP-62 NSCLC): 35.3 µM | TGI (MCF7 breast): 18.8 µM | TGI (COLO 205 colon): 19.1 µM | TGI (MDA-MB-435): 24.7 µM | TGI (SF-295 CNS): 27.7 µM | TGI (BT-549 breast): 25.4 µM | TGI (ACHN renal): 23.4 µM | TGI (CAKI-1 renal): 22.8 µM | TGI (EKVX NSCLC): 26.2 µM | TGI (786-0 renal): 23 µM | TGI (SK-MEL-5 melanoma): 25 µM | TGI (U251 CNS): 26.6 µM | TGI (RXF 393 renal): 23.1 µM | TGI (HS 578T breast): 30.5 µM | TGI (SNB-19 CNS): 31.1 µM | TGI (NCI-H226 lung): 29.3 µM | TGI (M14 melanoma): 35.9 µM | TGI (UACC-62 melanoma): 23.1 µM | TGI (HCC-2998 colon): 18.1 µM | TGI (SW-620 colon): 21.4 µM | TGI (NCI-H522 lung): 24.3 µM | TGI (IGROV1 ovarian): 26.6 µM | TGI (SK-MEL-28 melanoma): 26.2 µM | TGI (UO-31 renal): 24.7 µM | TGI (K-562 leukemia): 25.7 µM | TGI (OVCAR-8 ovarian): 26.6 µM | TGI (DU-145 prostate): 29.2 µM | TGI (OVCAR-4 ovarian): 28.7 µM | TGI (A549 NSCLC): 21.3 µM | TGI (OVCAR-3 ovarian): 21.1 µM | TGI (PC-3 prostate): 22.9 µM | TGI (SF-539 CNS): 32.7 µM | TGI (KM12 colon): 36.4 µM | TGI (MDA-MB-231 breast): 26.4 µM

CCC(C)C(NC(=O)C(Cc1cccs1)NC(=O)C(CC(C)C)NC(=O)C(CC(C)C)NC(=O)C(CCCCN)NC(=O)C(CCCN=C(N)N)NC(=O)[C@H](Cc1ccc(O)cc1)NC(=O)C(NC(=O)C(C)NC(=O)C(N)CC(C)C)C(C)O)C(=O)NC(CC(C)C)C(N)=O (stereo partly specified) (H-[ξL][ξA][ξT]Y[ξR][ξK][ξL][ξL][ξ2Thi][ξI][ξL]-NH2)
TGI (UACC-257 melanoma): > 50 µM | TGI (NCI-H23 lung): > 50 µM | TGI (BT-549 breast): > 50 µM | TGI (NCI-H226 lung): > 50 µM

Source: PubChem BioAssay (NCI)
